Experiments:
Settings in all cases: 72 h
Caco-2 [1] = experiment: cell viability relative to DMSO; higher = less toxic
Calu-3 [2] = experiment: as above
HepG2 [3] = experiment: as above
U2OS [4] = experiment: as above
Vero E6 [5] = experiment: as above
Caco-2 [6] = experiment: relative viability EC50 (midpoint between 100% and the lowest measured viability); higher = less toxic
HepG2 [7] = experiment: as above
U2OS [8] = experiment: as above
Vero E6 [9] = experiment: as above
Caco-2 [10] = experiment: drug sensitivity score (DSS) for viability; higher = more toxic; extreme values may be limits of the assay
Calu-3 [11] = experiment: as above
HepG2 [12] = experiment: as above
U2OS [13] = experiment: as above
Vero E6 [14] = experiment: as above
Calu-3 [15] = experiment: relative viability EC50 (midpoint between 100% and the lowest measured viability); higher = less toxic

SMILES	cell viability (Caco-2 [1]; 1 nM)	cell viability (Caco-2 [1]; 10 nM)	cell viability (Caco-2 [1]; 100 nM)	cell viability (Caco-2 [1]; 1000 nM)	cell viability (Caco-2 [1]; 10000 nM)	cell viability (Calu-3 [2]; 1 nM)	cell viability (Calu-3 [2]; 10 nM)	cell viability (Calu-3 [2]; 100 nM)	cell viability (Calu-3 [2]; 1000 nM)	cell viability (Calu-3 [2]; 10000 nM)	cell viability (HepG2 [3]; 1 nM)	cell viability (HepG2 [3]; 10 nM)	cell viability (HepG2 [3]; 100 nM)	cell viability (HepG2 [3]; 1000 nM)	cell viability (HepG2 [3]; 10000 nM)	cell viability (U2OS [4]; 1 nM)	cell viability (U2OS [4]; 10 nM)	cell viability (U2OS [4]; 100 nM)	cell viability (U2OS [4]; 1000 nM)	cell viability (U2OS [4]; 10000 nM)	cell viability (Vero E6 [5]; 1 nM)	cell viability (Vero E6 [5]; 10 nM)	cell viability (Vero E6 [5]; 100 nM)	cell viability (Vero E6 [5]; 1000 nM)	cell viability (Vero E6 [5]; 10000 nM)	relative viability EC50 (Caco-2 [6])	relative viability EC50 (HepG2 [7])	relative viability EC50 (U2OS [8])	relative viability EC50 (Vero E6 [9])	drug sensitivity score (Caco-2 [10])	drug sensitivity score (Calu-3 [11])	drug sensitivity score (HepG2 [12])	drug sensitivity score (U2OS [13])	drug sensitivity score (Vero E6 [14])	relative viability EC50 (Calu-3 [15])
CC1(C)CCC(C)(C)c2cc(C#Cc3ccc(C(=O)O)cc3)ccc21 [EC-23]	104%	105%	89.1%	88.8%	80.6%	106%	88.7%	83.9%	63.9%	85.7%	96.5%	108%	104%	108%	106%	105%	100%	98.4%	95.7%	97.4%	102%	99.6%	100%	97.4%	94.2%	> 10 µM	> 10 µM	> 10 µM	> 10 µM	1.7	5.2	0	0	0	
CCOc1cc2ncc(C#N)c(Nc3ccc(OCc4cccc(F)c4)c(Cl)c3)c2cc1NC(=O)/C=C/CN(C)C [HKI-357]	94.4%	95.3%	88.1%	77.9%	6%	101%	81%	51.5%	94.1%	32.9%	97%	93.6%	102%	90.9%	0.3%						99.7%	106%	92.6%	65.3%	0.2%	1.63 µM	2.41 µM		1.37 µM	8.6	10.7	7		9.8	0.373 µM
CO[C@@H]1COCC[C@@H]1N[C@@H]1CC[C@@](C(=O)N2CCc3ncc(C(F)(F)F)cc3C2)(C(C)C)C1 [MK-0812]	110%	95.7%	99%	113%	97.5%						96.5%	82.9%	90.3%	94.7%	98.4%	98.8%	106%	101%	106%	103%	102%	100%	111%	106%	97.2%	> 10 µM	> 10 µM	> 10 µM	> 10 µM	0		0	0	0	
O=S(=O)(N[C@H]1CC[C@@](c2cc(F)ccc2F)(S(=O)(=O)c2ccc(Cl)cc2)CC1)C(F)(F)F [MRK-560]	88.8%	99.1%	94.5%	94.7%	95.6%	96.2%	91.2%	104%	97.7%	102%	98.5%	91.2%	106%	81.5%	86.4%	99.9%	102%	100%	101%	95.9%						> 10 µM	> 10 µM	> 10 µM		0	0	2.1	0		> 10 µM
O=C(Nc1nc2ccc(NC(=O)C34CC5CC(CC(C5)C3)C4)cc2s1)c1ccccc1 [NVP-231]	95.6%	89.2%	106%	86.3%	43.5%	100%	96.1%	91.8%	93.1%	50.3%	83.9%	98.2%	91.6%	74.1%	35.4%	100%	93.8%	99.3%	91.9%	49.6%	101%	96.1%	90.3%	93.9%	38.4%	1.58 µM	1.24 µM	1.93 µM	2.34 µM	5.2	3.8	6.4	4	4.4	
O=C(NC[C@H]1CN(c2ccc(N3CCOCC3=O)cc2)C(=O)O1)c1ccc(Cl)s1 [Rivaroxaban (Xarelto)]	92.6%	95.4%	101%	86.9%	91%	96.4%	89.7%	105%	102%	96.4%	102%	102%	97.1%	110%	90.9%	103%	99.1%	102%	96%	102%						> 10 µM	> 10 µM	> 10 µM		0	0	0	0		> 10 µM
NS(=O)(=O)c1ccc(-n2nc(C(F)(F)F)cc2-c2ccc(Cl)cc2)cc1 [SC-236]	102%	92%	86.3%	96.6%	82.8%						111%	99.5%	101%	101%	103%	99.1%	96%	98.1%	102%	103%	94.7%	93.3%	91.6%	91.6%	100%	> 10 µM	> 10 µM	> 10 µM	> 10 µM	0.7		0	0	0	
NC(=O)Nc1sc(-c2ccc(F)cc2)cc1C(N)=O [TPCA-1]	95.6%	99.4%	94.2%	76.6%	25.8%	98.1%	104%	97.7%	96.4%	75.9%	99.5%	95.8%	94.2%	80.6%	49.8%	100%	104%	95.9%	94.6%	45.3%	104%	98.3%	101%	98.2%	52%	1.44 µM	1.3 µM	2.35 µM		7.2	1.4	4.7	3.8	2.7	> 10 µM

Reference: the supplement of paper PMC13380429
